# In patent US20100272711A1, “COMPOSITIONS AND METHODS FOR THE TREATMENT AND PREVENTION OF CARDIOVASCULAR DISEASES” (THOMAS JEFFERSON UNIVERSITY, priority 2007, published 2010):
# How the values were obtained:
# [1] = test system: animal models of ischemia/reperfusion injury; settings: with a sodium-hydrogen exchanger inhibitor at reperfusion; or just before reperfusion in animal models; cited from earlier work
# [2] = test system: wild-type and TNF 1.6 mice; experiment: Left ventricular hemodynamics: chronotropic and functional responsiveness to adenosine analogue or AR agonists; assay type: in vivo, mouse
# Procedure: FIGS. 16A-16B show the cardiac response of wild type (WT) and TNF 1.6 transgenic mice to an adenosine analogue or AR agonists. Under anesthetization, a 1.4 F micromanometer catheter (Millar Instruments) was inserted into the left ventricle through the right carotid artery. Chronotropic and functional responsiveness to adenosine analogue or AR agonists were recorded. […] Values are mean±SEM (n=5). *P<0.05 vs. age-matched WT. The graph measured the slope (in vivo chronotropic responsiveness) from baseline to 10 minutes after drug administration in wild-type and TNF 1.6 mice. Values were mean±SEM (n=5) and compared using ANOVA General Linear Model with repeated measures. *P<0.05 vs. age-matched WT in slope change. The graph in FIG. 16B measured the slope (arterial pressure or cardiac contractility) from baseline to 10 minutes after drug administration in wild-type and TNF1.6 mice. Values were mean±SEM (n=5) and compared using ANOVA General Linear Model with repeated measures. *P<0.05 vs. age-matched WT in slope change. Left Ventricular Hemodynamics Measurement. After anesthetization with 2.5% Avertin (10 μl/g body weight, IP, Aldrich Chemical Co), mice were placed in the supine position. A 1.4 F micromanometer catheter (Millar Instruments) was inserted into the left ventricle through the right carotid artery.^64,65 Left ventricular pressure and heart rate were then recorded at baseline and 10 minutes after injection of CPA (0.1 mg/kg body weight, IP, Sigma-Aldrich Co). A1 receptor-specific functional response. To determine whether the changes in A1-AR levels had functional significance in TNF 1.6 mice, the inventors determined the chronotropic response to the selective A1-AR agonist, 2-chloro-N^6-cyclopentanyladenosine (CPA).
# WT mice = experiment: Effect of DOX diet on heart size and function of wild type mice; assay type: in vivo, mouse; settings: 300 mg/kg diet; 12-week-old mice; FIGS. 9 and 10
# Procedure: 7-10 12-weeks old mice from each group were measured. No significance was detected at p-value setting of P<0.05.
# Echocardiography were performed on 7-10 12-weeks-old male mice. No significance was detected at p-value setting of P<0.05.
# Echocardiography and Electrocardiogram (ECG). Echocardiographic studies on A1-AR transgenic mice were performed using an ultrasonographic system (ACUSON Sequoia C256) as described.^34,35 […] Non-transgenic littermates served as controls and unless otherwise noted, all mice were male. Mice were anesthetized with 2.5% Avertin (10 μl/g body weight, IP, Aldrich Chemical Co) and placed in the supine position. A 14-MHz transducer was applied to the left hemithorax. Two-dimensional targeted M-mode imaging was obtained from the short-axis view at the level of the greatest left ventricular dimension at baseline. […] End diastole was determined at the maximal left ventricular diastolic dimension, and end systole was taken at the peak of posterior-wall motion. […] ECG was recorded for 2 minutes and analyzed using Char 5 software (Adinstruments). […]
# [3] = test system: cardiac A1-AR expression (tTA transactivation); experiment: Doxycycline-regulated A1-AR transgene expression (tet-off system) in A1-TG mice; assay type: in vivo, mouse
# Text: Transgenic mouse generation. The human A1-AR cDNA was cloned into a cardiac-specific and inducible controlled vector (TREMHC)^64 composed of a modified mouse α-myosin heavy chain minimal promoter fused with nucleotide binding sites for tetracyline transactivating factor (tTA).^33 A1-AR transgenic mice, engineered on a FVB background (PolyGene, Switzerland), were crossed with mice that expressed tTA in the heart (MHC-tTA) (FIG. 1A). In this “tet-off” inducible system, the stable tetracycline analog, doxycycline (DOX), inhibits tTA transactivation and was administered to mice at 300 mg/kg of mouse diet (Bio-Serv, NJ). Survival studies were performed using both male and female mice and found no statistical significant differences. Therefore, only male mice were used for subsequent studies. All protocols were approved by the Institutional Animal Care and Use Committee of Thomas Jefferson University.
# Doxycyline-regulated A1-AR expression. The stable tetracycline analog, doxycycline (DOX), inhibits tTA transactivation. The inventors determined a minimal dose of DOX (300 mg/kg of mouse diets) that attenuated A1-AR expression, which, in turn prevented cardiomyopathy. […] To generate inducible A1-AR transgenic mice (A1-TGInd), DOX was removed when mice reached three-weeks of age. […] At six weeks of age, A1-AR protein expression in A1-TGCcon and A1-TGInd was identical (FIGS. 2B and C). […]
smiles,measurement,setting,value
"CCNC(=O)[C@H]1CC(n2cnc3c(N[C@H](CC)Cc4sccc4Cl)ccnc32)[C@H](O)[C@@H]1O (relative stereo) [AMP 579, [1S-[1α,2β,3β,4α(S*)]]-4-[7-[[3-chloro-2-thienyl)methyl]propyl]amino]-3H-imidazo[4,5-b]pyridin-3-yl]-N-ethyl-2,3-dihydroxycyclopentanecarboxamide]",cardioprotection,[1],cardioprotective
"OC[C@H]1O[C@@H](n2cnc3c(NC4CCCC4)nc(Cl)nc32)[C@H](O)[C@@H]1O [CPA, 2-chloro-N^6-cyclopentanyladenosine]",arterial pressure and cardiac contractility after injection,"[2]; baseline to 10 minutes after CPA injection, FIG. 16B",only slightly increased arterial pressure and cardiac contractility
same,chronotropic response in TNF 1.6 mice compared with age- and gender-matched wild-type controls,"[2]; baseline to 10 minutes after drug administration, n=5",far more robust decrease in heart rate
same,heart rate (chronotropic response),"[2]; wild-type mice, baseline to 10 minutes after injection, CPA 0.1 mg/kg IP",effectively decreased heart rate
"C[C@H]1c2cccc(O)c2C(=O)C2=C(O)[C@]3(O)C(=O)C(C(N)=O)=C(O)[C@@H](N(C)C)[C@@H]3[C@@H](O)[C@@H]21 [DOX, doxycycline]",WT mouse heart size or function,WT mice,did not affect WT mouse heart size or function
same,minimal dose that attenuated A1-AR expression,[3]; in turn prevented cardiomyopathy,300 mg/kg of mouse diets
same,transgene suppressed,[3]; sub-optimum DOX dose,80%
